Results taken from the supplement of paper PMC13380429.

Assays:
Conditions in all cases: 72 h
Vero E6 [1] = assay: cell viability relative to DMSO; higher = less toxic
HepG2 [2] = assay: as above
Caco-2 [3] = assay: as above
U2OS [4] = assay: as above
Calu-3 [5] = assay: as above
Vero E6 [6] = assay: drug sensitivity score (DSS) for viability; higher = more toxic; extreme values may be limits of the assay
HepG2 [7] = assay: as above
Caco-2 [8] = assay: as above
U2OS [9] = assay: as above
Calu-3 [10] = assay: as above
Vero E6 [11] = assay: relative viability EC50 (midpoint between 100% and the lowest measured viability); higher = less toxic
HepG2 [12] = assay: as above
Caco-2 [13] = assay: as above
U2OS [14] = assay: as above
Calu-3 [15] = assay: as above

| Compound | cell viability (Vero E6 [1]; 1 nM) [%] | cell viability (Vero E6 [1]; 10 nM) [%] | cell viability (Vero E6 [1]; 100 nM) [%] | cell viability (Vero E6 [1]; 1000 nM) [%] | cell viability (Vero E6 [1]; 10000 nM) [%] | cell viability (HepG2 [2]; 1 nM) [%] | cell viability (HepG2 [2]; 10 nM) [%] | cell viability (HepG2 [2]; 100 nM) [%] | cell viability (HepG2 [2]; 1000 nM) [%] | cell viability (HepG2 [2]; 10000 nM) [%] | cell viability (Caco-2 [3]; 1 nM) [%] | cell viability (Caco-2 [3]; 10 nM) [%] | cell viability (Caco-2 [3]; 100 nM) [%] | cell viability (Caco-2 [3]; 1000 nM) [%] | cell viability (Caco-2 [3]; 10000 nM) [%] | cell viability (U2OS [4]; 1 nM) [%] | cell viability (U2OS [4]; 10 nM) [%] | cell viability (U2OS [4]; 100 nM) [%] | cell viability (U2OS [4]; 1000 nM) [%] | cell viability (U2OS [4]; 10000 nM) [%] | cell viability (Calu-3 [5]; 1 nM) [%] | cell viability (Calu-3 [5]; 10 nM) [%] | cell viability (Calu-3 [5]; 100 nM) [%] | cell viability (Calu-3 [5]; 1000 nM) [%] | cell viability (Calu-3 [5]; 10000 nM) [%] | drug sensitivity score (Vero E6 [6]) | drug sensitivity score (HepG2 [7]) | drug sensitivity score (Caco-2 [8]) | drug sensitivity score (U2OS [9]) | drug sensitivity score (Calu-3 [10]) | relative viability EC50 (Vero E6 [11]) [µM] | relative viability EC50 (HepG2 [12]) [µM] | relative viability EC50 (Caco-2 [13]) [µM] | relative viability EC50 (U2OS [14]) [µM] | relative viability EC50 (Calu-3 [15]) [µM] |
| --- | --- | --- | --- | --- | --- | --- | --- | --- | --- | --- | --- | --- | --- | --- | --- | --- | --- | --- | --- | --- | --- | --- | --- | --- | --- | --- | --- | --- | --- | --- | --- | --- | --- | --- | --- |
| Cc1ncc(CN2CC=C(c3ccccc3)CC2)c(N)n1 [Ro-10-5824] | 92.7 | 108 | 88.5 | 99.2 | 108 | 91.8 | 104 | 108 | 115 | 112 | 102 | 105 | 96.8 | 97.1 | 96.8 | 101 | 95.3 | 102 | 95.8 | 96.9 | 103 | 95.6 | 103 | 99.5 | 99.5 | 0 | 0 | 0 | 0 | 0 | > 10 | > 10 | > 10 | > 10 | > 10 |
| CCC[C@H](Nc1nc(-c2ccc(NC(=O)NCC)c(OC)c2)ncc1C)c1cccnc1 [CYT-997] | 95.7 | 100 | 98.5 | 22 | 23.7 | 101 | 106 | 51.8 | 36.3 | 33.3 | 97.9 | 93.5 | 84 | 42.6 | 38.2 | 97.2 | 102 | 45.6 | 19.1 | 18.2 | 99.4 | 96 | 54.4 | 37 | 37.5 | 14.4 | 17.9 | 12.4 | 21.3 | 17.4 | 0.303 | 0.0687 | 0.198 | 0.0761 | 0.0547 |
| Oc1ccc2c3c1O[C@H]1c4[nH]c5ccccc5c4C[C@@]4(O)[C@@H](C2)N(CC2CC2)CC[C@]314 [naltrindole] | 95.9 | 102 | 105 | 95.4 | 92.1 | 103 | 97.7 | 101 | 106 | 91.7 | 102 | 94.6 | 98.1 | 96.5 | 106 | 98.7 | 100 | 102 | 111 | 97.9 | 98.5 | 98.5 | 103 | 101 | 83.9 | 0 | 0 | 0 | 0 | 0.3 | > 10 | > 10 | > 10 | > 10 | > 10 |
| CCOC(=O)[C@H](CCc1ccccc1)N[C@@H](C)C(=O)N1CCC[C@H]1C(=O)O [enalapril] | 97.2 | 99.3 | 98.2 | 100 | 107 | 103 | 95.4 | 98.4 | 109 | 109 | 92.4 | 97.1 | 84.1 | 102 | 100 | 97.9 | 101 | 99.5 | 98.6 | 102 | 90.5 | 98.3 | 92.2 | 101 | 91.9 | 0 | 0 | 0 | 0 | 0 | > 10 | > 10 | > 10 | > 10 | > 10 |
| CCN(c1cc(-c2ccc(CN3CCOCC3)cc2)cc(C(=O)NCc2c(C)cc(C)[nH]c2=O)c1C)C1CCOCC1 [tazemetostat] | 96.2 | 97.7 | 95.2 | 98.9 | 98.9 | 86.1 | 97 | 90.3 | 96.9 | 95.3 | 91.9 | 101 | 98.9 | 101 | 92.6 | 97.7 | 96.9 | 101 | 102 | 93.8 | 91.2 | 103 | 98.3 | 98 | 104 | 0 | 0 | 0 | 0 | 0 | > 10 | > 10 | > 10 | > 10 | > 10 |
| C=C1C[C@]23C[C@@]1(O)CC[C@H]2[C@@]12C=C[C@H](O)[C@@](C)(C(=O)O1)[C@H]2[C@@H]3C(=O)O [MD-920] | 100 | 94.6 | 86.7 | 102 | 116 | 95.5 | 107 | 94.2 | 99 | 104 | 99.9 | 85.4 | 104 | 95.1 | 90.3 | 95.1 | 96.1 | 104 | 101 | 97 | 96.1 | 106 | 108 | 105 | 91.1 | 0 | 0 | 0 | 0 | 0 | > 10 | > 10 | > 10 | > 10 | > 10 |
| Cc1cc(=O)n(-c2ccccc2)[nH]1 [N-demethylantipyrine] | 104 | 101 | 94.2 | 95.2 | 102 | 94.1 | 106 | 95.3 | 107 | 93.8 | 99.3 | 97.2 | 102 | 84.8 | 99.8 | 101 | 99.7 | 98.7 | 102 | 98.5 | 102 | 107 | 98.5 | 97 | 106 | 0 | 0 | 0 | 0 | 0 | > 10 | > 10 | > 10 | > 10 | > 10 |
| CC(=O)[C@H]1CC[C@H]2[C@@H]3C[C@H](C)C4=CC(=O)CC[C@]4(C)[C@H]3[C@@H](O)C[C@]12C [medrysone] | 98 | 95 | 97.9 | 95.6 | 100 | 102 | 98.4 | 108 | 101 | 112 | 90.4 | 97.5 | 98.2 | 101 | 102 | 97.6 | 97.4 | 99.8 | 101 | 99.6 | 91.5 | 98.5 | 101 | 91.3 | 93.4 | 0 | 0 | 0 | 0 | 0 | > 10 | > 10 | > 10 | > 10 | > 10 |
| O=C(O)Cc1cccc(OCCCN(Cc2cccc(C(F)(F)F)c2Cl)CC(c2ccccc2)c2ccccc2)c1 [GW-3965] | 112 | 98.8 | 100 | 101 | 104 | 90.9 | 99.3 | 116 | 97.5 | 92.5 | 92.8 | 107 | 97.8 | 98.1 | 77.7 | 100 | 99.2 | 98.2 | 101 | 95.6 | 93.6 | 101 | 108 | 114 | 98.8 | 0 | 0 | 1 | 0 | 0 | > 10 | > 10 | > 10 | > 10 | > 10 |
| C[C@H]1CC[C@H](n2c3cnccc3c3cnc(Nc4ccc5c(n4)CCN(C(=O)CO)C5)nc32)CC1 [AMG-925] | 99.6 | 92.8 | 96.1 | 95.9 | 104 | 105 | 90.3 | 113 | 100 | 101 | 112 | 95.5 | 96.4 | 95.3 | 91.3 | 98.8 | 100 | 97.1 | 99.4 | 96.7 | 95.1 | 109 | 100 | 109 | 93 | 0 | 0 | 0 | 0 | 0 | > 10 | > 10 | > 10 | > 10 | > 10 |
| CCOC1O[C@H]([C@@H](COCc2ccccc2)OCc2ccccc2)[C@H](OCc2ccccc2)[C@H]1O (stereo not given in full) [tribenoside] | 91.6 | 94.8 | 91.6 | 93.7 | 111 | 91.4 | 104 | 93.6 | 92.6 | 94.2 | 93 | 96.2 | 90.3 | 95.6 | 94 | 93.9 | 96.3 | 101 | 97.3 | 98 | 93.5 | 94.6 | 102 | 105 | 106 | 0 | 0 | 0 | 0 | 0 | > 10 | > 10 | > 10 | > 10 | > 10 |
| O=C(O)C(Cc1ccccc1[N+](=O)[O-])=NNc1nc(-c2ccc(Cl)c(Cl)c2)cs1 [4EGI-1] | 97.9 | 95.3 | 96.7 | 92 | 100 | 101 | 104 | 102 | 91.6 | 45.5 | 87.1 | 103 | 98.1 | 112 | 84.8 | 94.5 | 96.7 | 93.8 | 93.7 | 93.1 | 98.1 | 100 | 97.7 | 104 | 96.7 | 0 | 4.3 | 0.1 | 0 | 0 | > 10 | 1.96 | > 10 | > 10 | > 10 |
| CC(CNS(=O)(=O)C(C)C)c1ccc(-c2ccc(C#N)cc2)cc1 (stereo not given) | 109 | 99.9 | 106 | 97.7 | 98.6 | 111 | 117 | 104 | 98.9 | 30.5 | 98 | 106 | 97.7 | 104 | 80.8 | 103 | 102 | 99.2 | 101 | 85.8 | 93.8 | 97.6 | 102 | 108 | 90.4 | 0 | 4 | 0.4 | 0.1 | 0 | > 10 | 3.06 | > 10 | > 10 | > 10 |
